Experimental data published in the NIST ThermoML archive (doi:10.1021/je900387e).
± gives the expanded uncertainty stated by the source.

Test: xn = mol fraction of the nth substance listed
Conditions: Liquid, Pycnometric method

CCCCCl [1-chlorobutane] + O=C=O
mass density [kg/m3]
Conditions | 308.2 K | 313.1 K
6210 kPa, x1 = 0.1488 | 843 ± 4 | –
6560 kPa, x1 = 0.0981 | 819 ± 4 | –
6560 kPa, x1 = 0.1488 | 848 ± 4 | –
6760 kPa, x1 = 0.1488 | – | 825 ± 4
6790 kPa, x1 = 0.0981 | 825 ± 4 | –
6850 kPa, x1 = 0.1488 | 853 ± 4 | –
6910 kPa, x1 = 0.0744 | 786 ± 4 | –
6980 kPa, x1 = 0.0981 | 827 ± 4 | –
6980 kPa, x1 = 0.1488 | – | 828 ± 4
7080 kPa, x1 = 0.0744 | 791 ± 4 | –
7130 kPa, x1 = 0.0981 | – | 791 ± 4
7140 kPa, x1 = 0.0981 | 831 ± 4 | –
7240 kPa, x1 = 0.0483 | 742 ± 4 | –
7250 kPa, x1 = 0.1488 | 858 ± 4 | –
7310 kPa, x1 = 0.0981 | – | 795 ± 4
7310 kPa, x1 = 0.1488 | – | 832 ± 4
7320 kPa, x1 = 0.0981 | 834 ± 4 | –
7330 kPa, x1 = 0.0483 | 747 ± 4 | –
7430 kPa, x1 = 0.0483 | 752 ± 4 | –
7460 kPa, x1 = 0.0744 | – | 754 ± 4
7470 kPa, x1 = 0.0744 | 801 ± 4 | –
7500 kPa, x1 = 0.0981 | 837 ± 4 | –
7530 kPa, x1 = 0.0483 | 757 ± 4 | –
7570 kPa, x1 = 0.0981 | – | 802 ± 4
7640 kPa, x1 = 0.0243 | 670 ± 4 | –
7640 kPa, x1 = 0.0744 | – | 759 ± 4
7660 kPa, x1 = 0.0483 | 761 ± 4 | –
7670 kPa, x1 = 0.0243 | 674 ± 4 | –
7700 kPa, x1 = 0.0744 | 807 ± 4 | –
7710 kPa, x1 = 0.0243 | 678 ± 4 | –
7730 kPa, x1 = 0.0981 | 840 ± 4 | –
7740 kPa, x1 = 0.0243 | 682 ± 4 | –
7740 kPa, x1 = 0.1488 | 863 ± 4 | 837 ± 4
7770 kPa, x1 = 0.0744 | – | 764 ± 4
7780 kPa, x1 = 0.0243 | 686 ± 4 | –
7790 kPa, x1 = 0.0483 | 766 ± 4 | –
7820 kPa, x1 = 0.0243 | 690 ± 4 | –
7860 kPa, x1 = 0.0243 | 694 ± 4 | –
7860 kPa, x1 = 0.0981 | – | 807 ± 4
7890 kPa, x1 = 0.0483 | – | 693 ± 4
7940 kPa, x1 = 0.0243 | 701 ± 4 | –
7940 kPa, x1 = 0.0483 | 770 ± 4 | 697 ± 4
7940 kPa, x1 = 0.0744 | – | 769 ± 4
7940 kPa, x1 = 0.0981 | 843 ± 4 | –
7950 kPa, x1 = 0.0744 | 812 ± 4 | –
8000 kPa, x1 = 0.0483 | – | 701 ± 4
8030 kPa, x1 = 0.0243 | 707 ± 4 | –
8070 kPa, x1 = 0.0744 | 814 ± 4 | –
8090 kPa, x1 = 0.0744 | – | 773 ± 4
8100 kPa, x1 = 0.0483 | – | 707 ± 4
8110 kPa, x1 = 0.0483 | 776 ± 4 | –
8120 kPa, x1 = 0.0243 | 713 ± 4 | –
8170 kPa, x1 = 0.0981 | 846 ± 4 | –
8180 kPa, x1 = 0.0981 | – | 813 ± 4
8190 kPa, x1 = 0.1488 | – | 841 ± 4
8210 kPa, x1 = 0.0483 | – | 713 ± 4
8220 kPa, x1 = 0.0243 | – | 545 ± 4
8230 kPa, x1 = 0.0243 | 720 ± 4 | 549 ± 4
8230 kPa, x1 = 0.0744 | 817 ± 4 | –
8250 kPa, x1 = 0.0243 | – | 555 ± 4
8270 kPa, x1 = 0.0744 | – | 778 ± 4
8280 kPa, x1 = 0.0243 | – | 563 ± 4
8280 kPa, x1 = 0.0483 | 780 ± 4 | –
8290 kPa, x1 = 0.1488 | 868 ± 4 | –
8300 kPa, x1 = 0.0243 | – | 571 ± 4
8330 kPa, x1 = 0.0243 | – | 580 ± 4
8340 kPa, x1 = 0.0483 | – | 719 ± 4
8350 kPa, x1 = 0.0243 | 727 ± 4 | –
8350 kPa, x1 = 0.0744 | 820 ± 4 | –
8360 kPa, x1 = 0.0243 | – | 588 ± 4
8390 kPa, x1 = 0.0981 | 849 ± 4 | –
8400 kPa, x1 = 0.0243 | – | 597 ± 4
8450 kPa, x1 = 0.0483 | – | 725 ± 4
8470 kPa, x1 = 0.0243 | – | 610 ± 4
8470 kPa, x1 = 0.0483 | 785 ± 4 | –
8470 kPa, x1 = 0.0744 | – | 782 ± 4
8480 kPa, x1 = 0.0243 | 734 ± 4 | –
8500 kPa, x1 = 0.0744 | 822 ± 4 | –
8510 kPa, x1 = 0.0981 | – | 819 ± 4
8550 kPa, x1 = 0.0243 | – | 623 ± 4
8560 kPa, x1 = 0.0483 | 788 ± 4 | –
8570 kPa, x1 = 0.0243 | 738 ± 4 | –
8600 kPa, x1 = 0.0483 | – | 732 ± 4
8630 kPa, x1 = 0.0981 | 852 ± 4 | –
8640 kPa, x1 = 0.0744 | 825 ± 4 | –
8650 kPa, x1 = 0.0243 | – | 637 ± 4
8670 kPa, x1 = 0.0483 | 790 ± 4 | –
8680 kPa, x1 = 0.0744 | – | 787 ± 4
8760 kPa, x1 = 0.0483 | – | 738 ± 4
8770 kPa, x1 = 0.0243 | – | 651 ± 4
8770 kPa, x1 = 0.0483 | 793 ± 4 | –
8800 kPa, x1 = 0.0243 | 748 ± 4 | –
8830 kPa, x1 = 0.0744 | 828 ± 4 | –
8840 kPa, x1 = 0.1488 | 873 ± 4 | –
8890 kPa, x1 = 0.0483 | 795 ± 4 | –
8890 kPa, x1 = 0.0981 | – | 825 ± 4
8900 kPa, x1 = 0.0744 | – | 792 ± 4
8900 kPa, x1 = 0.0981 | 856 ± 4 | –
8910 kPa, x1 = 0.0243 | 753 ± 4 | –
8910 kPa, x1 = 0.1488 | – | 849 ± 4
8930 kPa, x1 = 0.0243 | – | 666 ± 4
8940 kPa, x1 = 0.0483 | – | 745 ± 4
8970 kPa, x1 = 0.0744 | 830 ± 4 | –
9000 kPa, x1 = 0.0483 | 798 ± 4 | –
9050 kPa, x1 = 0.0243 | 758 ± 4 | –
9120 kPa, x1 = 0.0483 | 800 ± 4 | –
9130 kPa, x1 = 0.0243 | – | 682 ± 4
9150 kPa, x1 = 0.0483 | – | 751 ± 4
9150 kPa, x1 = 0.0744 | – | 797 ± 4
9160 kPa, x1 = 0.0744 | 833 ± 4 | –
9160 kPa, x1 = 0.0981 | 859 ± 4 | –
9190 kPa, x1 = 0.0243 | 763 ± 4 | –
9230 kPa, x1 = 0.0483 | 803 ± 4 | –
9260 kPa, x1 = 0.0981 | – | 830 ± 4
9330 kPa, x1 = 0.0744 | 836 ± 4 | –
9350 kPa, x1 = 0.0483 | 805 ± 4 | –
9370 kPa, x1 = 0.0483 | – | 759 ± 4
9390 kPa, x1 = 0.0243 | – | 698 ± 4
9410 kPa, x1 = 0.0744 | – | 802 ± 4
9450 kPa, x1 = 0.0981 | 862 ± 4 | –
9450 kPa, x1 = 0.1488 | – | 853 ± 4
9480 kPa, x1 = 0.1488 | 878 ± 4 | –
9490 kPa, x1 = 0.0483 | 808 ± 4 | –
9530 kPa, x1 = 0.0744 | 838 ± 4 | –
9620 kPa, x1 = 0.0483 | – | 765 ± 4
9640 kPa, x1 = 0.0483 | 811 ± 4 | –
9670 kPa, x1 = 0.0744 | – | 807 ± 4
9700 kPa, x1 = 0.0744 | 841 ± 4 | –
9710 kPa, x1 = 0.0243 | – | 716 ± 4
9720 kPa, x1 = 0.0981 | – | 837 ± 4
9780 kPa, x1 = 0.0483 | 813 ± 4 | –
9780 kPa, x1 = 0.0981 | 865 ± 4 | –
9810 kPa, x1 = 0.0483 | – | 770 ± 4
9910 kPa, x1 = 0.0483 | 815 ± 4 | –
9940 kPa, x1 = 0.0744 | 844 ± 4 | –
9960 kPa, x1 = 0.0744 | – | 812 ± 4
10000 kPa, x1 = 0.0483 | – | 775 ± 4
10020 kPa, x1 = 0.0243 | – | 729 ± 4
10030 kPa, x1 = 0.0981 | 869 ± 4 | –
10110 kPa, x1 = 0.0744 | 846 ± 4 | –
10150 kPa, x1 = 0.1488 | 883 ± 4 | –
10190 kPa, x1 = 0.0981 | – | 843 ± 4
10220 kPa, x1 = 0.0483 | – | 780 ± 4
10270 kPa, x1 = 0.1488 | – | 860 ± 4
10280 kPa, x1 = 0.0243 | – | 738 ± 4
10290 kPa, x1 = 0.0744 | – | 817 ± 4
10380 kPa, x1 = 0.0981 | 872 ± 4 | –
10460 kPa, x1 = 0.0483 | – | 785 ± 4
10510 kPa, x1 = 0.0981 | 874 ± 4 | –
10550 kPa, x1 = 0.0243 | – | 748 ± 4
10620 kPa, x1 = 0.0744 | – | 823 ± 4
10680 kPa, x1 = 0.0483 | – | 790 ± 4
10690 kPa, x1 = 0.0981 | – | 849 ± 4
10700 kPa, x1 = 0.0243 | – | 753 ± 4
10850 kPa, x1 = 0.0243 | – | 758 ± 4
10850 kPa, x1 = 0.1488 | 888 ± 4 | –
10860 kPa, x1 = 0.1488 | – | 865 ± 4
10950 kPa, x1 = 0.0483 | – | 795 ± 4
11620 kPa, x1 = 0.1488 | 893 ± 4 | –
12430 kPa, x1 = 0.1488 | 898 ± 4 | –
13270 kPa, x1 = 0.1488 | 904 ± 4 | –
13660 kPa, x1 = 0.1488 | 906 ± 4 | –
14090 kPa, x1 = 0.1488 | 909 ± 4 | –
14420 kPa, x1 = 0.1488 | 911 ± 4 | –
14870 kPa, x1 = 0.1488 | 914 ± 4 | –
